Here are results for 59 compounds from patent US8877741B2, “Pyrrolidine derivatives, pharmaceutical compositions and uses thereof” (Boehringer Ingelheim International GmbH, priority 2013, dated 2014).

Sequence of human ACC2 (O00763 129-2458): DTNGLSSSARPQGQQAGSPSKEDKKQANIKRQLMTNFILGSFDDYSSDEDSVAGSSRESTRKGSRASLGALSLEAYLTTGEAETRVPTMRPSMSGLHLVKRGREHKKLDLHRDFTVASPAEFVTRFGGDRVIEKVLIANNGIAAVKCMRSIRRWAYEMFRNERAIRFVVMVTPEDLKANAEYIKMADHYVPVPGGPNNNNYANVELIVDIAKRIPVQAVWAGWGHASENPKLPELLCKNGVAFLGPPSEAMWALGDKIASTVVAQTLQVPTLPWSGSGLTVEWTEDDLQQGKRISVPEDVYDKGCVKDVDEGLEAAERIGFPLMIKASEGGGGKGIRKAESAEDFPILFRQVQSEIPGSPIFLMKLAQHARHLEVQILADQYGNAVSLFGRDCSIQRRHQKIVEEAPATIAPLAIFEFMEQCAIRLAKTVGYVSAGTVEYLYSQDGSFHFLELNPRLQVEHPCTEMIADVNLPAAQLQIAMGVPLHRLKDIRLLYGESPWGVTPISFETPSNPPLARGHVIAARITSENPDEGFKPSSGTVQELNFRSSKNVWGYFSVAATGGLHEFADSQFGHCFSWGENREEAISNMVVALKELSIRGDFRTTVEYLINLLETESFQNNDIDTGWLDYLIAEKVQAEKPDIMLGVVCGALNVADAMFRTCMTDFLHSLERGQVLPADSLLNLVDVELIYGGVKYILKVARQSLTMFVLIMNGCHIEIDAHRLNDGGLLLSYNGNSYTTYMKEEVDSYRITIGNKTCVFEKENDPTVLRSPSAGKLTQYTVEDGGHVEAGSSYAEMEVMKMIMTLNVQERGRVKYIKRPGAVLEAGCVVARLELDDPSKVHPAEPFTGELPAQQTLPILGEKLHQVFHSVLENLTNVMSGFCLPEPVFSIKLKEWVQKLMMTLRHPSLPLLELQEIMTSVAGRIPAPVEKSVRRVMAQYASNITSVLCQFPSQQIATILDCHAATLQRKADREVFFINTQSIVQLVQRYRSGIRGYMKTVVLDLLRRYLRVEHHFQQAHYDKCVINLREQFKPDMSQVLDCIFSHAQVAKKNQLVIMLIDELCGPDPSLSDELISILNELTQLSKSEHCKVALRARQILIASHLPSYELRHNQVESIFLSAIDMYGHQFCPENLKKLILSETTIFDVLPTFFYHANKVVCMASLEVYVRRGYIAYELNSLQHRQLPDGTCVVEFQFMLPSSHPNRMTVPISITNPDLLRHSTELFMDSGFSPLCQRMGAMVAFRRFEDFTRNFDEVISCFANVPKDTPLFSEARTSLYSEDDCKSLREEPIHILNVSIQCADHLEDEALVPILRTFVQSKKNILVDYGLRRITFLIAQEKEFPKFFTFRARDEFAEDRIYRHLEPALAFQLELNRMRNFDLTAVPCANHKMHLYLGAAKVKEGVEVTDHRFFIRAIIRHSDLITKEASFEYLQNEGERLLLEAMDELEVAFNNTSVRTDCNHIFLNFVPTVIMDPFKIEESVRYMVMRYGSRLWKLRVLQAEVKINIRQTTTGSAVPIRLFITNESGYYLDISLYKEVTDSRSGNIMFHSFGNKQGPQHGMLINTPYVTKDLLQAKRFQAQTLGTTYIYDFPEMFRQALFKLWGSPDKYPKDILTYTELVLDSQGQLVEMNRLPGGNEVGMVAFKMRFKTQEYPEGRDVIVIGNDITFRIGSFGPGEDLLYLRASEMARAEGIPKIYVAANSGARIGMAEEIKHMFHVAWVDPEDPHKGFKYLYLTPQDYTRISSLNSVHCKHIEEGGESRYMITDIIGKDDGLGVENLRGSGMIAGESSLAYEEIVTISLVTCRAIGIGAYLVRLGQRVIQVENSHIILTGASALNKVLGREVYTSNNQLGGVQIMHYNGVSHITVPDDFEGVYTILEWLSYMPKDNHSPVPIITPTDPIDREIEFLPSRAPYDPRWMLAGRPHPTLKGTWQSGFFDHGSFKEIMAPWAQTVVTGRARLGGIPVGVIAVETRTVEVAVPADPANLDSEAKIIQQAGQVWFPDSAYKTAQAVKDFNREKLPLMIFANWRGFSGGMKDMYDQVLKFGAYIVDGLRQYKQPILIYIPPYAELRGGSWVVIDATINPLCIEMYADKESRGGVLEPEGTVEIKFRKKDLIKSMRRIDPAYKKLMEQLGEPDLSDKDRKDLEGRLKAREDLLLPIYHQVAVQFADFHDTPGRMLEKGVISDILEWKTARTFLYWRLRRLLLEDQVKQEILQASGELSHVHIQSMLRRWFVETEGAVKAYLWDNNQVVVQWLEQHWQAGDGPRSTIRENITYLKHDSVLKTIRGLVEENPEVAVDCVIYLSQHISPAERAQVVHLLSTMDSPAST

This assay addresses human ACC2 (Homo sapiens (Human), UniProt O00763). The experiment in a line: ACC2 assay, spectrophotometric 384 well assay (NADH-linked kinetic method). It counts as biochemical. The settings on record: human ACC2 construct lacking the 128 N-terminal amino acids; coupled lactate dehydrogenase/pyruvate kinase reaction, 340 nm, 25° C. A digest of the protocol: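 N-terminally truncated human ACC2 (lacking 128 residues), expressed in insect cells, was coupled to pyruvate kinase/lactate dehydrogenase, with NADH and acetyl-CoA at 2000 μM and ATP at 500 μM final. The OD340 decrease was followed over 15 min at 25 °C. Slopes were normalised to vehicle and no-acetyl-CoA controls, and IC50 came from four-parameter regression.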
With `C[C@H](NC(=O)C(F)(F)F)c1ccc(OC2CCN(c3ccnc(OCC(F)F)c3)C2)cc1` (some centres unmarked) [Example 2.113], 77 nM corresponded to half-maximal inhibition (IC50).

Take `C[C@H](NC(=O)c1cnn(C)c1Cl)c1ccc(OC2CCN(c3ccnc(OCC(F)F)c3)C2)cc1` (some centres unmarked) [Example 2.114]: inhibition was half-maximal at 611 nM (IC50).

`C[C@H](NC(=O)CO)c1ccc(OC2CCN(c3ccnc(OCC(F)F)c3)C2)cc1` (some centres unmarked) [Example 2.115]: the IC50 (usually the concentration at which inhibition is half-maximal) came to 869 nM.

As to `C[C@H](NC(=O)CC#N)c1ccc(OC2CCN(c3ccnc(OCC(F)F)c3)C2)cc1` (some centres unmarked) [Example 2.116], the IC50 is 362 nM.

In turn, `Cc1[nH]ncc1C(=O)N[C@@H](C)c1ccc(OC2CCN(c3ccc(OCC4CC4(F)F)cn3)C2)cc1` (some centres unmarked) [Example 2.118] returned an IC50 of 169 nM.

The compound `C[C@H](NC(=O)CC#N)c1ccc(OC2CCN(c3ccc(OCC4CC4(F)F)cn3)C2)cc1` (some centres unmarked) [Example 2.119] returned an IC50 of 235 nM.

For the compound `COCC(=O)Nc1nc(C)c(C(=O)N[C@@H](C)c2ccc(OC3CCN(c4ccc(OCC5CC5(F)F)cn4)C3)cc2)s1` (some centres unmarked) [Example 2.120], the IC50 stood at 37 nM.

For the compound `C[C@H](NC(=O)c1cnco1)c1ccc(OC2CCN(c3ccc(OCC4CC4(F)F)cn3)C2)cc1` (some centres unmarked) [Example 2.121], the IC50 stood at 43 nM.

Take `C[C@H](NC(=O)c1cnco1)c1ccc(OC2CCN(c3cccc(C(F)(F)F)n3)C2)cc1` (some centres unmarked) [Example 2.122]: the IC50 came out at 85 nM.

`CC(=O)Nc1nc(C)c(C(=O)N[C@@H](C)c2ccc(OC3CCN(c4ccnc(N5CCC(F)(F)C5)c4F)C3)cc2)s1` (some centres unmarked) [Example 2.123] showed a concentration for half-maximal inhibition (IC50) of 58 nM.

`C[C@H](NC(=O)C1(C)CC1)c1ccc(OC2CCN(c3ccnc(N4CCC(F)(F)C4)c3F)C2)cc1` (some centres unmarked) [Example 2.124] had an IC50 of 72 nM.

As to `C[C@H](NC(=O)c1cncs1)c1ccc(OC2CCN(c3ccnc(N4CCC(F)(F)C4)c3F)C2)cc1` (some centres unmarked) [Example 2.125], the IC50 came to 60 nM. This IC50 and that of the compound before are within 1.5-fold of each other.

`C[C@H](NC(=O)c1cnco1)c1ccc(OC2CCN(c3ccnc(N4CCC(F)(F)C4)c3F)C2)cc1` (some centres unmarked) [Example 2.126] showed an IC50 of 45 nM.

As to `C[C@H](NC(=O)Nc1ccon1)c1ccc(O[C@@H]2CCN(c3ccc(OCC4CC4(F)F)cn3)C2)cc1` (stereo partly drawn) [Example 3.1, 1-((1S)-1-(4-((3R)-1-(5-((2,2-Difluorocyclopropyl)methoxy)pyridin-2-yl)pyrrolidin-3-yloxy)phenyl)ethyl)-3-(isoxazol-3-yl)urea], it took 81 nM to reach half-maximal inhibition (IC50).

`CC(C)Oc1cc(N2CCC(Oc3ccc([C@H](C)NC(=O)N(C)C)cc3)C2)ccn1` (some centres unmarked) [Example 3.2] registered an IC50 of 65 nM. This IC50 and that of the compound before are within 1.5-fold of each other.

Turning to `CCNC(=O)N[C@@H](C)c1ccc(OC2CCN(c3ccc(OCC4CC4(F)F)cn3)C2)cc1` (some centres unmarked) [Example 3.3], the IC50 amounted to 150 nM. This IC50 lies about 2.3-fold higher than the previous one.

Turning to `CCNC(=O)N[C@@H](C)c1ccc(OC2CCN(c3ccnc(OCC4CC4)c3)C2)cc1` (some centres unmarked) [Example 3.4], half-maximal inhibition (IC50) required 75 nM.

With `CNC(=O)N[C@@H](C)c1ccc(OC2CCN(c3ccnc(OCC4CC4)c3)C2)cc1` (some centres unmarked) [Example 3.5], the concentration for half-maximal inhibition (IC50) was determined as 50 nM.

`CCN(C)C(=O)N[C@@H](C)c1ccc(OC2CCN(c3ccnc(OCC4CC4)c3)C2)cc1` (some centres unmarked) [Example 3.6]: the IC50 was 110 nM.

`COCCN(C)C(=O)N[C@@H](C)c1ccc(OC2CCN(c3ccc(OCC4CC4(F)F)cn3)C2)cc1` (some centres unmarked) [Example 3.7]: it took 444 nM to reach half-maximal inhibition (IC50).

Compound `CCN(C)C(=O)N[C@@H](C)c1ccc(OC2CCN(c3ccc(OCC4CC4(F)F)cn3)C2)cc1` (some centres unmarked) [Example 3.8] returned an IC50 of 90 nM.

As for `C[C@H](NC(=O)N1CCC1)c1ccc(OC2CCN(c3ccc(OCC4CC4(F)F)cn3)C2)cc1` (some centres unmarked) [Example 3.9], 200 nM corresponded to half-maximal inhibition (IC50).

Take `C[C@H](NC(=O)N1CCOCC1)c1ccc(OC2CCN(c3ccc(OCC4CC4(F)F)cn3)C2)cc1` (some centres unmarked) [Example 3.10]: the half-inhibitory concentration (IC50) was 112 nM.

As for `CC(=O)NC1CCN(C(=O)N[C@@H](C)c2ccc(OC3CCN(c4ccc(OCC5CC5(F)F)cn4)C3)cc2)CC1` (some centres unmarked) [Example 3.11], the IC50 stood at 314 nM.

Turning to `C[C@H](NC(=O)N1CCOCC1)c1ccc(OC2CCN(c3ccnc(OCC4CC4)c3)C2)cc1` (some centres unmarked) [Example 3.12], it took 144 nM to reach half-maximal inhibition (IC50).

`C[C@H](NC(=O)N1CCOCC1)c1ccc(OC2CCN(c3ccnc(OCC(F)F)c3)C2)cc1` (some centres unmarked) [Example 3.13] showed an IC50 of 497 nM.

As for `CNC(=O)N[C@@H](C)c1ccc(OC2CCN(c3ccnc(OCC(F)F)c3)C2)cc1` (some centres unmarked) [Example 3.14], 238 nM corresponded to half-maximal inhibition (IC50).

`CCNC(=O)N[C@@H](C)c1ccc(OC2CCN(c3ccnc(OCC(F)F)c3)C2)cc1` (some centres unmarked) [Example 3.16] came in with an IC50 of 313 nM.

As to `C[C@H](NC(=O)N(C)C)c1ccc(OC2CCN(c3ccnc(OCC(F)F)c3)C2)cc1` (some centres unmarked) [Example 3.17], the IC50 stood at 138 nM.

In turn, `C[C@H](NC(=O)N1CCCC1)c1ccc(OC2CCN(c3ccc(OCC4CC4(F)F)cn3)C2)cc1` (some centres unmarked) [Example 3.18] showed an IC50 of 423 nM.

For the compound `CC(=O)NC1CCN(C(=O)N[C@@H](C)c2ccc(OC3CCN(c4ccc(OCC5CC5(F)F)cn4)C3)cc2)C1` (some centres unmarked) [Example 3.19], the IC50 came to 1440 nM.

On to `CNC(=O)N[C@@H](C)c1ccc(OC2CCN(c3ccc(OCC4CC4(F)F)cn3)C2)cc1` (some centres unmarked) [Example 3.20], for which the half-maximal inhibitory concentration (IC50) stood at 92 nM.

Compound `CC(=O)NC1CCCN(C(=O)N[C@@H](C)c2ccc(OC3CCN(c4ccc(OCC5CC5(F)F)cn4)C3)cc2)C1` (some centres unmarked) [Example 3.21] registered an IC50 of 363 nM.

The compound `C[C@H](NC(=O)N(C)C)c1ccc(OC2CCN(c3ccnc(N4CCC(F)(F)C4)c3F)C2)cc1` (some centres unmarked) [Example 3.22] yielded an IC50 of 50 nM.

`C[C@H](NC(=O)N1CCOCC1)c1ccc(OC2CCN(c3ccnc(N4CCC(F)(F)C4)c3F)C2)cc1` (some centres unmarked) [Example 3.23] returned an IC50 of 205 nM. Compared with the last compound, the IC50 is about 4.1-fold higher.

In turn, `COC(=O)N[C@@H](C)c1ccc(O[C@@H]2CCN(c3ccc(OC[C@H]4CC4(F)F)cn3)C2)cc1` [Example 4.1, Methyl (S)-1-(4-((R)-1-(5-(((R)-2,2-difluorocyclopropyl)methoxy)pyridin-2-yl)pyrrolidin-3-yloxy)phenyl)ethylcarbamate] had an IC50 of 39 nM. This IC50 is about 5.3-fold lower than that of the compound before.

In the case of `COC(=O)N[C@@H](C)c1ccc(OC2CCN(c3cccc(C(F)(F)F)n3)C2)cc1` (some centres unmarked) [Example 4.2], the IC50 is 139 nM.

The compound `COC(=O)N[C@@H](C)c1ccc(OC2CCN(c3ccc(OCC4CC4(F)F)cn3)C2)cc1` (some centres unmarked) [Example 4.3] yielded an IC50 of 59 nM.

`COC(=O)N[C@@H](C)c1ccc(OC2CCN(c3ccnc(OCC4CC4)c3)C2)cc1` (some centres unmarked) [Example 4.4] displayed an IC50 of 70 nM. This IC50 and that of the compound before are within 1.5-fold of each other.

In turn, `COC(=O)N[C@@H](C)c1ccc(OC2CCN(c3ccnc(OCC(F)F)c3)C2)cc1` (some centres unmarked) [Example 4.5] returned an IC50 of 166 nM.

In turn, `COC(=O)N[C@@H](C)c1ccc(OC2CCN(c3ccnc(OCC4CC4(F)F)c3F)C2)cc1` (some centres unmarked) [Example 4.6] had an IC50 of 68 nM.

On to `COC(=O)N[C@@H](C)c1ccc(OC2CCN(c3ccnc(N4CCC(F)(F)C4)c3F)C2)cc1` (some centres unmarked) [Example 4.7], for which the IC50 was 134 nM.

Take `CCCNc1nccc(N2CCC(Oc3ccc([C@H](C)NC(=O)OC)cc3)C2)c1F` (some centres unmarked) [Example 4.8]: the IC50 turned out to be 77 nM.

In the case of `C[C@H](NC(=O)C(C)(C)C)c1ccc(O[C@@H]2CCN(c3cccc(C(F)(F)F)n3)C2)cc1` [Example 5.1, N—((S)-1-(4-((R)-1-(6-(Trifluoromethyl)pyridin-2-yl)pyrrolidin-3-yloxy)phenyl)ethyl) pivalamide], the IC50 turned out to be 649 nM.

`C[C@H](NC(=O)N(C)C)c1ccc(OC2CCN(c3cccc(C(F)(F)F)n3)C2)cc1` (some centres unmarked) [Example 5.2] displayed an IC50 of 90 nM.

Compound `CCC(=O)N[C@@H](C)c1ccc(OC2CCN(c3ccnc(N4CCC(F)(F)C4)c3F)C2)cc1` (some centres unmarked) [Example 5.3] gave an IC50 of 34 nM.

In turn, `C[C@H](NC(=O)N(C)C)c1ccc(OC2CCN(c3ccnc(OCC4CC4(F)F)c3F)C2)cc1` (some centres unmarked) [Example 5.4] showed an IC50 of 49 nM.

Take `C[C@H](NC(=O)N1CCOCC1)c1ccc(OC2CCN(c3ccnc(OCC4CC4(F)F)c3F)C2)cc1` (some centres unmarked) [Example 5.5]: 310 nM corresponded to half-maximal inhibition (IC50).

The compound `CCCNc1nccc(N2CCC(Oc3ccc([C@H](C)NC(=O)N(C)C)cc3)C2)c1F` (some centres unmarked) [Example 5.6] returned an IC50 of 36 nM.

For `CCCNc1nccc(N2CCC(Oc3ccc([C@H](C)NC(=O)NCC)cc3)C2)c1F` (some centres unmarked) [Example 5.7], the IC50 came out at 117 nM.

Take `CCCNc1nccc(N2CCC(Oc3ccc([C@H](C)NC(=O)N4CCOCC4)cc3)C2)c1F` (some centres unmarked) [Example 5.8]: half-maximal inhibition (IC50) required 141 nM.

For `C[C@H](NC(=O)N(C)C)c1ccc(OC2CCN(c3ccnc(OCC(F)F)c3F)C2)cc1` (some centres unmarked) [Example 5.9], the IC50 was 73 nM.

As to `CC(O)C(=O)N[C@@H](C)c1ccc(OC2CCN(c3cccc(C(F)(F)F)n3)C2)cc1` (stereo partly drawn) [Example 6.1, 2-Hydroxy-N—((S)-1-(4-((R)-1-(6-(trifluoromethyl)pyridin-2-yl)pyrrolidin-3-yloxy)phenyl)ethyl)propanamide], 428 nM corresponded to half-maximal inhibition (IC50).

For the compound `C[C@H](NC(=O)CO)c1ccc(OC2CCN(c3cccc(C(F)(F)F)n3)C2)cc1` (some centres unmarked) [Example 6.2], half-maximal inhibition (IC50) was put at 614 nM.

Regarding `C[C@H](NC(=O)C(F)(F)C(F)(F)F)c1ccc(O[C@@H]2CCN(c3cccc(C(F)(F)F)n3)C2)cc1` [Example 7.1, 2,2,3,3,3-Pentafluoro-N—((S)-1-(4-((R)-1-(6-(trifluoromethyl)pyridin-2-yl)pyrrolidin-3-yloxy)phenyl)ethyl)propanamide], the half-maximal inhibitory concentration (IC50) was determined as 400 nM.

Compound `C[C@H](NC(=O)C(F)(F)F)c1ccc(OC2CCN(c3ccnc(OCC4CC4)c3)C2)cc1` (some centres unmarked) [Example 7.3] displayed an IC50 of 54 nM. This IC50 is about 7.4-fold lower than that of the compound before.

In turn, `CC(=O)N[C@@H](C)c1ccc(O[C@@H]2CCN(c3cccc(C(F)(F)F)n3)C2)cc1` [Example 8.1, N—((S)-1-(4-((R)-1-(6-(Trifluoromethyl)pyridin-2-yl)pyrrolidin-3-yloxy)phenyl)ethyl)acetamide] came in with an IC50 of 62 nM.

The compound `CC(=O)N[C@@H](C)c1ccc(O[C@@H]2CCN(c3cc(Cl)ncc3C)C2)cc1` [Example 8.2] gave an IC50 of 565 nM.

Regarding `CC(=O)N[C@@H](C)c1ccc(O[C@@H]2CCN(c3ncc(C(F)(F)F)cc3F)C2)cc1` [Example 8.3], the IC50 worked out at 755 nM. This IC50 and that of the compound before are within 1.5-fold of each other.
